Where a SMILES comes first, the peptide text is derived from it. Bridges are numbered along the chain shown (N, C = ends). [ ]: non-standard residue; d: D form. The star is where a group is joined. ξ: configuration not given here. X1 = CC(C)(C)[Si](F)(c1ccc(C[N+](C)(C)CC(=O)*)cc1)C(C)(C)C; DO3AM = NC(=O)CN1CCN(CC(N)=O)CCN(CC(=O)*)CCN(CC(N)=O)CC1; ξW = NC(Cc1c[nH]c2ccccc12)C(=O)O; dOrn = NCCC[C@@H](N)C(=O)O; ξF = NC(Cc1ccccc1)C(=O)O; ξT = CC(O)C(N)C(=O)O; ξDap = NCC(N)C(=O)O; ξC = NC(CS)C(=O)O
Target: T1, SST2 (Homo sapiens, UniProt P30874)
T1 construct: expressed in transfected cells; host or cells: CHO (Chinese hamster ovary) cells
Assay: Determination of IC50: competitive binding against [125I]TOC on SST2-transfected CHO cells
Conditions: [125I]TOC reference radioligand, 60 min room temperature
Protocol: The SST2-transfected CHO cells were cultivated in Dulbecco's Modified Eagle Medium/Nutrient Mixture F-12 (DMEM/F-12) with Glutamax-I (1:1) (Gibco), supplemented with 10% fetal calf serum (FCS) and maintained at 37° C. in a humidified 5% CO2 atmosphere. […] After removal of the culture medium, the cells were treated once with 300 μL of HBSS-B (Hank's balanced salt solution, Biochrom, Berlin, Germany, with addition of 1% bovine serum albumin (BSA)) and left with 200 μL HBSS-B. Next, 25 μL per well of solutions, containing either HBSS-B (control) or the respective ligand in increasing concentration (10^−10-10^−4 M in HBSS-B, were added with subsequent addition of 25 μL of
[^125I]TOC ([^125I]Tyr^3-Octreotide) (1.0 nM) in HBSS-B. Each concentration is investigated in triplicate. After 60 min incubation at room temperature, the experiment was terminated by removal of the assay medium and consecutive rinsing with 300 μL of cold PBS. The media of both steps were combined in one fraction and represent the amount of unbound radioligand.
Afterwards, the cells were lysed with 300 μL of 1 M NaOH and united with the 300 μL 1 M NaOH of the following wash step. Quantification of bound and unbound radioligand was accomplished in a γ-counter.

T1 sequence (P30874 whole entry, species assumed): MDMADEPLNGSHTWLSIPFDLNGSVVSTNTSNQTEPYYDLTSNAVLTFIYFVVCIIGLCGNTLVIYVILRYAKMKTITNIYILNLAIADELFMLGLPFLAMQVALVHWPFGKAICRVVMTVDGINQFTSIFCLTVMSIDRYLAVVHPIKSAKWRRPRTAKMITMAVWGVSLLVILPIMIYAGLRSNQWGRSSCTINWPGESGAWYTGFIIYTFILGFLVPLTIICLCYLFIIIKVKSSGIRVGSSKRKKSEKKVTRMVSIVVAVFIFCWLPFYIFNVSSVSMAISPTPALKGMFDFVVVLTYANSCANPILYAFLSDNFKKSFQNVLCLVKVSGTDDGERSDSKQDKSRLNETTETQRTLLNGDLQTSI

Row | SMILES | IC50 [nM]
1 | C[C@@H](O)[C@H](NC(=O)C1CSSCC(NC(=O)C(Cc2ccccc2)NC(=O)CNC(=O)CNC(=O)CNC(=O)C(CC(=O)O)NC(=O)[C@@H](CC(=O)O)NC(=O)C(CCCNC(N)=O)NC(=O)[C@@H](CNC(=O)C[N+](C)(C)Cc2ccc([Si](F)(C(C)(C)C)C(C)(C)C)cc2)NC(=O)CN2CCN(CC(=O)O)CCN(CC(=O)O)CCN(CC(=O)O)CC2)C(=O)N[C@@H](Cc2ccc(O)cc2)C(=O)NC(Cc2c[nH]c3ccccc23)C(=O)N[C@@H](CCCCN)C(=O)N[C@@H]([C@@H](C)O)C(=O)N1)C(=O)O (stereo partly drawn) (natLu complex, metal not drawn) [[Lu]46] | 4.07 ± 0.52
2 | CC(O)C(NC(=O)C1CSSCC(NC(=O)C(Cc2ccccc2)NC(=O)CNC(=O)CNC(=O)CNC(=O)[C@@H](CCCN)NC(=O)[C@@H](CCCN)NC(=O)C(CNC(=O)CN2CCN(CC(N)=O)CCN(CC(N)=O)CCN(CC(N)=O)CC2)NC(=O)C[N+](C)(C)Cc2ccc([Si](F)(C(C)(C)C)C(C)(C)C)cc2)C(=O)N[C@@H](Cc2ccc(O)cc2)C(=O)NC(Cc2c[nH]c3ccccc23)C(=O)N[C@@H](CCCCN)C(=O)N[C@@H]([C@@H](C)O)C(=O)N1)C(=O)O (stereo partly drawn) [[Pb]61] (X1-[ξDap](DO3AM)[dOrn][dOrn]GGG[ξF][ξC]Y[ξW]KT[ξC][ξT]-OH; disulfide 8-13) | 7.96 ± 0.28
3 | C[C@@H](O)[C@H](NC(=O)C1CSSCC(NC(=O)C(Cc2ccccc2)NC(=O)CNC(=O)CNC(=O)CNC(=O)C(CC(=O)O)NC(=O)[C@@H](CC(=O)O)NC(=O)C(CNC(=O)C[N+](C)(C)Cc2ccc([Si](F)(C(C)(C)C)C(C)(C)C)cc2)NC(=O)CN2CCN(CC(=O)O)CCN(CC(=O)O)CCN(CC(=O)O)CC2)C(=O)N[C@@H](Cc2ccc(O)cc2)C(=O)NC(Cc2c[nH]c3ccccc23)C(=O)N[C@@H](CCCCN)C(=O)N[C@@H]([C@@H](C)O)C(=O)N1)C(=O)O (stereo partly drawn) (natLu complex, metal not drawn) [[Lu]44] | 3.86 ± 0.23
4 | C[C@@H](O)[C@H](NC(=O)C1CSSCC(NC(=O)C(Cc2ccccc2)NC(=O)CNC(=O)CNC(=O)CNC(=O)C(CC(=O)O)NC(=O)[C@@H](CC(=O)O)NC(=O)C(CCC(=O)O)NC(=O)[C@@H](CNC(=O)C[N+](C)(C)Cc2ccc([Si](F)(C(C)(C)C)C(C)(C)C)cc2)NC(=O)CN2CCN(CC(=O)O)CCN(CC(=O)O)CCN(CC(=O)O)CC2)C(=O)N[C@@H](Cc2ccc(O)cc2)C(=O)NC(Cc2c[nH]c3ccccc23)C(=O)N[C@@H](CCCCN)C(=O)N[C@@H]([C@@H](C)O)C(=O)N1)C(=O)O (stereo partly drawn) (natGa complex, metal not drawn) [[Ga]47] | 7.58 ± 0.58
5 | C[C@@H](O)[C@H](NC(=O)C1CSSCC(NC(=O)C(Cc2ccccc2)NC(=O)CNC(=O)CNC(=O)CNC(=O)C(CC(=O)O)NC(=O)[C@@H](CC(=O)O)NC(=O)C(CNC(=O)CN2CCN(CC(=O)O)CCN(CC(=O)O)CCN(CC(=O)O)CC2)NC(=O)C[N+](C)(C)Cc2ccc([Si](F)(C(C)(C)C)C(C)(C)C)cc2)C(=O)N[C@@H](Cc2ccc(O)cc2)C(=O)NC(Cc2c[nH]c3ccccc23)C(=O)N[C@@H](CCCCN)C(=O)N[C@@H]([C@@H](C)O)C(=O)N1)C(=O)O (stereo partly drawn) (natLu complex, metal not drawn) [[Lu]50] | 3.72 ± 0.61
6 | C[C@@H](O)[C@H](NC(=O)C1CSSCC(NC(=O)C(Cc2ccccc2)NC(=O)CNC(=O)CNC(=O)CNC(=O)C(CC(=O)O)NC(=O)[C@@H](CC(=O)O)NC(=O)C(CNC(=O)CN2CCN(CC(=O)O)CCN(CC(=O)O)CCN(CC(=O)O)CC2)NC(=O)[C@@H](CN)NC(=O)CNC(=O)CNC(=O)C[N+](C)(C)Cc2ccc([Si](F)(C(C)(C)C)C(C)(C)C)cc2)C(=O)N[C@@H](Cc2ccc(O)cc2)C(=O)NC(Cc2c[nH]c3ccccc23)C(=O)N[C@@H](CCCCN)C(=O)N[C@@H]([C@@H](C)O)C(=O)N1)C(=O)O (stereo partly drawn) (natGa complex, metal not drawn) [[Ga]53] | 3.4 ± 0.18
